These results are taken from ChEMBL document CHEMBL4433261, “Synthesis of peptidomimetics and chemo-biological tools for CD95/PLCγ1 interaction analysis” (Bioorg Med Chem Lett, 2019).

The source made the active and inactive calls. The rule behind the calls is not given here.

Series [1] has as its target T1, 1-phosphatidylinositol 4,5-bisphosphate phosphodiesterase gamma-1 (Homo sapiens) (UniProt P19174).
T1 sequence (whole entry): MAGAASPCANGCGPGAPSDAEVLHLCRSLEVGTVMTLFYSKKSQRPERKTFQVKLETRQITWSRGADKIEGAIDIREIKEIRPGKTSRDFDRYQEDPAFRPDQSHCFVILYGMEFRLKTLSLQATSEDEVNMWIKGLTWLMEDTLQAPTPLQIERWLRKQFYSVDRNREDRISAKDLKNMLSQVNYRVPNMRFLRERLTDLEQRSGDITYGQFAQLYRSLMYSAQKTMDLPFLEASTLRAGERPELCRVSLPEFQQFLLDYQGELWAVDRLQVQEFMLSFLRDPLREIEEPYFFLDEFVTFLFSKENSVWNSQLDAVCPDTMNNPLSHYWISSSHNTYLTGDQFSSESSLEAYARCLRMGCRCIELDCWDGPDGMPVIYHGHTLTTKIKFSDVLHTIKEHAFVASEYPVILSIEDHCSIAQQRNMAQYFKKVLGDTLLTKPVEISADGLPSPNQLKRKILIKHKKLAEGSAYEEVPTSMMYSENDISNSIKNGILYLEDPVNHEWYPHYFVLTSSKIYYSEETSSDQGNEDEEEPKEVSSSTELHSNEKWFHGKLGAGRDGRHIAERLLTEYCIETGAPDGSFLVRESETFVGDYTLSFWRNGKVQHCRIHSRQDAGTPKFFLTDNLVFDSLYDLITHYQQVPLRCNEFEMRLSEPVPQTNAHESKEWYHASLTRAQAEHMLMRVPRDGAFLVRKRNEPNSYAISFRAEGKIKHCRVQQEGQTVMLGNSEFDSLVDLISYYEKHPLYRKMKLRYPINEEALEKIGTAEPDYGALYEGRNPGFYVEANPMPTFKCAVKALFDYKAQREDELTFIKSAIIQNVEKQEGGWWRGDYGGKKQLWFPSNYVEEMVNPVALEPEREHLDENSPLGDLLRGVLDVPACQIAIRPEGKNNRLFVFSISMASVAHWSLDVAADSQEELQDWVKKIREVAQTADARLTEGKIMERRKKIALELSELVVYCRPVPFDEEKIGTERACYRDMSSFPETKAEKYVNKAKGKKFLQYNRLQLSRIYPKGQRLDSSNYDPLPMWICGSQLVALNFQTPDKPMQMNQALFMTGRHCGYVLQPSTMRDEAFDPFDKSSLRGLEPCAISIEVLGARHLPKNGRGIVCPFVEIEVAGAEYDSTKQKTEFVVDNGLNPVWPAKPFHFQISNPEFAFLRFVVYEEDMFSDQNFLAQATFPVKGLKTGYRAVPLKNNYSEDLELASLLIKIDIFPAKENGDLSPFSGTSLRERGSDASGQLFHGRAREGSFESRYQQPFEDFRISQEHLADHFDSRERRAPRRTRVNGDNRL
Briefly: (§1) Binding affinity to human full length Myc-tagged PLCgamma1 transfected in HEK293T cells by pull down assay. Format: cell-based.

Series [2] has as its target T2, 1-phosphatidylinositol 4,5-bisphosphate phosphodiesterase gamma-1 (Homo sapiens, UniProt P19174).
T2 sequence (P19174 whole entry): T1 sequence (whole entry)
The series is described as §1. The format is cell-based.

Series [3] in a line: Inhibition of human full length HA-tagged CD95/human full length Myc-tagged PLCgamma1 protein-protein interaction transfected in HEK293T cells incubated for 4 hrs by renilla luciferase based protein-fragment complementation assay. Format: cell-based.
The nature of series [4]: Half life in human whole blood. The format is ADME, tissue-based.
Series [5] deals with T3, Tumor necrosis factor receptor superfamily member 6 (Homo sapiens) (UniProt P25445).
T3 sequence (whole entry): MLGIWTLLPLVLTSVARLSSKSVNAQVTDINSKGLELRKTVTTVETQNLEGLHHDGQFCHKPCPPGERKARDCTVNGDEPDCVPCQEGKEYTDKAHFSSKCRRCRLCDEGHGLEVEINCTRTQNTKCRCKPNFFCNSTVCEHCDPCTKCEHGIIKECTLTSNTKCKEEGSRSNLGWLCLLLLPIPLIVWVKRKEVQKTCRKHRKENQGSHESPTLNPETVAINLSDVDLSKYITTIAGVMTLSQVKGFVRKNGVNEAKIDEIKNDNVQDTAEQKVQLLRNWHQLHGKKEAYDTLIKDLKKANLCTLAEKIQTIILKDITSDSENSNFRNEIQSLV
Description: Inhibition of s-CD95L(unknown origin)-stimulated cell migration of human Th17 cells at 1 uM incubated for 24 hrs by Boyden chambers assay.

Series [6] concerns the target T3, Tumor necrosis factor receptor superfamily member 6 (Homo sapiens). Description: Inhibition of s-CD95L(unknown origin)-stimulated cell migration of human MDA-MB-231 cells at 1 uM incubated for 24 hrs by Boyden chambers assay. Format: cell-based.
A short description of series [7]: Inhibition of human full length HA-tagged CD95/FADD (unknown origin) protein-protein interaction transfected in HEK293T cells incubated for 4 hrs by renilla luciferase based protein-fragment complementation assay. The format is cell-based.
The target in series [8] is T3, Tumor necrosis factor receptor superfamily member 6 (Homo sapiens). Description: Inhibition of s-CD95L(unknown origin)-stimulated cell migration of human MDA-MB-231 cells at 1 uM incubated for 24 hrs by Giemsa-staining based assay.
The next series is filed under the species Homo sapiens. Briefly: Selectivity ratio of IC50 for human full length HA-tagged CD95/FADD (unknown origin) protein-protein interaction to IC50 for human full length HA-tagged CD95/human full length Myc-tagged PLCgamma1 protein-protein interaction.
The target in series [9] is T3, Tumor necrosis factor receptor superfamily member 6 (Homo sapiens). Description: Inhibition of s-CD95L(unknown origin)-stimulated cell migration of human MDA-MB-231 cells at 10 uM incubated for 24 hrs by Boyden chambers assay. Format: cell-based.
Series [10] shares this target. Briefly: Inhibition of s-CD95L(unknown origin)-stimulated cell migration of human MDA-MB-231 cells at 10 uM incubated for 24 hrs by Giemsa-staining based assay.
The target is the same in series [11]. Description: Inhibition of s-CD95L(unknown origin)-stimulated cell migration of human Th17 cells at 10 uM incubated for 24 hrs by Boyden chambers assay.
The next series concerns CCRF-CEM. Briefly: Cytotoxicity in human CEM cells assessed as reduction in cell viability incubated for 24 hrs by MTT assay. The format is cell-based. On the technique in general: Tetrazolium dyes change colour on reduction, which living cells bring about.

Consider `N=C(N)NCCCCC(=O)N(CCNC(=O)[C@H](Cc1c[nH]cn1)N(CCNC(=O)[C@H](CCCNC(=N)N)N(CCN)C(=O)CCCC[C@@H]1SC[C@@H]2NC(=O)N[C@@H]21)C(=O)CCCCCN)[C@@H](CCCCN)C(N)=O`, for which the outcome in series [1] was Active.
By EC50 is commonly meant the concentration at which the effect is half-maximal. In series [2], `C[C@@H](O)[C@H](NC(=O)CCCC[C@@H]1SC[C@@H]2NC(=O)N[C@@H]21)C(=O)NCCN(C(=O)CCS)[C@@H](CCCNC(=N)N)C(=O)NCCN(C(=O)CCCCCN)[C@@H](Cc1c[nH]cn1)C(=O)NCCN(C(=O)CCCCNC(=N)N)[C@@H](CCCCN)C(N)=O` yielded a 50% effective concentration (EC50) of 25 to 50 µM.
As a reminder, the IC50 is the concentration that gives 50% inhibition. In general, half-life refers to the time in which the quantity being followed falls by half. Low values mean fast loss, high ones slow loss. As to H-TCRKHRK-OH, the IC50 in series [3] was 35 µM; in series [7] it was “Not Active”. Besides, in series [4], the half-life was in the range of 3 to 3.4 h. In addition, the inhibition result in series [5], in series [6] and in series [8] was “Active” each time. For the same molecule, in the series filed under Homo sapiens, the Ratio IC50 was > 100.
As for `N=C(N)NCCCCC(=O)N(CCNC(=O)[C@H](Cc1c[nH]cn1)N(CCNC(=O)[C@H](CCCNC(=N)N)N(CCN)C(=O)CCS)C(=O)CCCCCN)[C@@H](CCCCN)C(N)=O`, the IC50 in [3] stood at 75 µM; in [7] (read-out: IC50), 3800 µM. Moreover, the inhibition result in series [9], in series [10] and in [11] was “Active” in each case. In addition, the Ratio IC50 in the series filed under Homo sapiens came out at 50.
As to `C[C@@H](O)CC(=O)N(CCN)[C@@H](CS)C(=O)NCCN(C(=O)CCCCNC(=N)N)[C@@H](CCCCN)C(=O)NCCN(C(=O)CCc1c[nH]cn1)[C@@H](CCCNC(=N)N)C(=O)NCCNC(=O)CCCCCN`, the results for the IC50 in [3] and in series [7] (read-out: IC50) were 229 µM and 319 µM, respectively. The Ratio IC50 in the series filed under Homo sapiens was found to be 1.4.
With `CCCCCCCCCCCCCCCCCC(=O)N(CCN)[C@@H](CCCNC(=N)N)C(=O)NCCN(C(=O)CCCCCN)[C@@H](Cc1c[nH]cn1)C(=O)NCCN(C(=O)CCCCNC(=N)N)[C@@H](CCCCN)C(N)=O.O=C(O)C(F)(F)F.O=C(O)C(F)(F)F.O=C(O)C(F)(F)F.O=C(O)C(F)(F)F.O=C(O)C(F)(F)F`, the 50% inhibitory concentration (IC50) in [3] was 35 µM; in series [7] (read-out: IC50), 39 µM. The Ratio IC50 in the series filed under Homo sapiens came to 1.1. Besides, in the series on CCRF-CEM, the Activity result is reported as “Toxic”.
In the case of `C[C@@H](O)CC(=O)N[C@@H](CS)C(=O)NCCN(C(=O)CCCCNC(=N)N)[C@@H](CCCCN)C(=O)NCCN(C(=O)CCc1c[nH]cn1)[C@@H](CCCNC(=N)N)C(=O)NCCNC(=O)CCCCCN`, the IC50 in series [3] turned out to be 308 µM; in series [7] (read-out: IC50), 629 µM. Further, in the series filed under Homo sapiens, the Ratio IC50 is 2.
Take `N=C(N)NCCCCC(=O)N(CCNC(=O)[C@@H](N)CS)[C@@H](CCCCN)C(=O)NCCN(C(=O)CCc1c[nH]cn1)[C@@H](CCCNC(=N)N)C(=O)NCCNC(=O)CCCCCN`: the values for the IC50 in [3] and in series [7] (read-out: IC50) were 400 µM and 448 µM, respectively. For the same molecule, in the series filed under Homo sapiens, the Ratio IC50 was 1.1.
Turning to `C[C@@H](O)[C@H](N)C(=O)NCCN(C(=O)CCS)[C@@H](CCCNC(=N)N)C(=O)NCCN(C(=O)CCCCCN)[C@@H](Cc1c[nH]cn1)C(=O)NCCN(C(=O)CCCCNC(=N)N)[C@@H](CCCCN)C(N)=O`, the IC50 in series [3] is 77 µM; in [7], “Not Active”. The inhibition result in series [9], in series [10] and in series [11] was “Active” in each case. Also, the half-life in series [4] was in the range of 11 to 11.1 h. Further, in the series listed under Homo sapiens, the Ratio IC50 is > 100.
